Data published in patent publication US11690837B2, “Methods of improving cell-based therapy” (THE REGENTS OF THE UNIVERSITY OF CALIFORNIA, priority 2014, dated 2023).

What was measured:
sEH = target: T1, sEH (Homo sapiens, UniProt P34913); assay: Testing as sEH inhibitors (method not described); assay type: biochemical
T1 sequence (P34913 1-555): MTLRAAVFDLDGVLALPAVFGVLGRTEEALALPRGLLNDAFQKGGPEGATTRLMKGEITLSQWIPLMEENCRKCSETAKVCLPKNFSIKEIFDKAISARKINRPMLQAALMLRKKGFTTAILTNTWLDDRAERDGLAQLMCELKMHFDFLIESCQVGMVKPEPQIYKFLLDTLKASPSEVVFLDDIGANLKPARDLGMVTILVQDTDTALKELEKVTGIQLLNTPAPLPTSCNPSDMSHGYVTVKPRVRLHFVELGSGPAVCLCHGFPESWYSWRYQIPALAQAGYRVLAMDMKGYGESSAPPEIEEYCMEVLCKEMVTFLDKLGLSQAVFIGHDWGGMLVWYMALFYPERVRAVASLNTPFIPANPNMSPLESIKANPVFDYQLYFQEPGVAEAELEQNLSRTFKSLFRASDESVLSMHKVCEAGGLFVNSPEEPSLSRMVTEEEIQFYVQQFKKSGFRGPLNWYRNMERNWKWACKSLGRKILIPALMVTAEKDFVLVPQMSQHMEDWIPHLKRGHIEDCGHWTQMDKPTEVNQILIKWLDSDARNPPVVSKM
Excerpt: (§1) (Both the 1- and the 2-admamantyl ureas have been tested and have about the same high activity as an inhibitor of sEH. Thus, isomers of adamantyl dodecyl urea are preferred inhibitors. It is further expected that N, N′-dodecyl-cyclohexyl urea (DCU), and other inhibitors of sEH, and particularly dodecanoic acid ester derivatives of urea, are suitable for use in the methods. Preferred inhibitors include:
U.S. Pat. No. 5,955,496 (the '496 patent) also sets forth a number of sEH inhibitors which can be used in the methods. One category of these inhibitors comprises inhibitors that mimic the substrate for the enzyme. The lipid alkoxides (e.g., the 9-methoxide of stearic acid) are an exemplar of this group of inhibitors.

[1] = assay type: in vitro ADME
Excerpt: as §1, with “include: […]” for “include:”

CCCCCCCCCCCCNC(=O)NC12CC3CC(CC(C3)C1)C2 [ADU, N-Adamantyl-N′-dodecyl urea]
activity as an inhibitor of sEH (sEH): particularly high activity | metabolic stability [1]: metabolically stable
